Reference: patent US7566781B2, “Imidazopyridine compound” (Banyu Pharmaceutical Co., Ltd., priority 2004, dated 2009)

Target: T1, human MCH-1R (Homo sapiens, UniProt Q99705)
T1 construct: expressed in transfected cells; host or cells: CHO-K1 (American Type Culture Collection), membrane samples
Assay: MCH binding inhibition test
Details: membranes of MCH-1R expressing CHO-K1 cells, 50 pM [125I]MCH, 25° C., 1 hour, pH 7.4; read-out: IC50 (50% inhibition concentration of test compound to the specific [125I]MCH binding)
Experimental: A human MCH-1R encoding cDNA sequence [FEBS Letters, Vol. 398, 253 (1996); Biochimica et Biophisica Acta, Vol. 1401, 216 (1998)] was cloned to plasmid vector pEF/myc/cyto (Invitrogen Corporation). The obtained expression vector was transfected to a host cell CHO-K1 (American Type Culture Collection) using Lipofectamine Plus Reagent (Life Technology Inc.) to provide MCH-1R expression cells.
Membrane samples prepared from the MCH-1R expression cells were incubated with each test compound and 50 pM of [^125I]MCH (NEN Co.), in an assay buffer (50 mM Tris buffer comprising 10 mM magnesium chloride, 2 mM ethylenediamine tetraacetate, 0.01% bacitracin and 0.2% bovine serum albumin; pH 7.4) at 25° C. for an hour, followed by filtration through Glass Filter GF/C (Wattman Co.). After washing the glass filter with 50 mM Tris buffer (pH 7.4) comprising 10 mM magnesium chloride, 2 mM ethylenediamine tetraacetate and 0.04% Tween-20, the radioactive activity on the glass filter was measured. The non-specific binding was measured in the presence of 1 μM human MCH and 50% inhibition concentration (IC50 value) of each test compound to the specific [^125I]MCH binding was determined.

T1 sequence (Q99705 whole entry): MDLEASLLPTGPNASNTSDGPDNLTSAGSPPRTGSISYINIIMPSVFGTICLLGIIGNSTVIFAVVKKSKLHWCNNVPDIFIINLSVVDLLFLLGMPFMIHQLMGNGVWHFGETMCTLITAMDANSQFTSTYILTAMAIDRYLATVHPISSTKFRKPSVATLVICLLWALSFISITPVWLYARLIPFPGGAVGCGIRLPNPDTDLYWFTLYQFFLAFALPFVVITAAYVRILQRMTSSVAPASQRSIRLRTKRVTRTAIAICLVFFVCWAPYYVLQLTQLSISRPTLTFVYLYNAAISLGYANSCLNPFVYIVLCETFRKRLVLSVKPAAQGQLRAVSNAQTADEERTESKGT

| Compound | IC50 |
| --- | --- |
| CCc1nc2ccc(NC(=O)c3ccc(OCc4ccccn4)c(F)c3)cn2c1C [Example 9, N-(2-ethyl-3-methylimidazo[1,2-a]pyridin-6-yl)-3-fluoro-4-(pyridin-2-ylmethoxy)benzamide] | 3.4 nM |
| CCc1nc2ccc(NC(=O)c3ccc(OCc4ccc(F)cn4)c(F)c3)cn2c1C [Example 11, N-(2-ethyl-3-methylimidazo[1,2-a]pyridin-6-yl)-3-fluoro-4-[(5-fluoropyridin-2-yl)methoxy]benzamide] | 2.2 nM |
| Cc1c(CCCN2CCCC2)nc2ccc(NC(=O)c3ccc(OCc4ccccc4)cc3)cn12 [Example 17] | 0.49 nM |
| Cc1c(C2CC2)nc2ccc(NC(=O)c3ccc(COc4ccccn4)cc3)cn12 [Example 25] | 8.4 nM |
| CCc1nc2ccc(NC(=O)c3ccc(/C=C/c4ccccc4)cc3)cn2c1C [Example 28, N-(2-ethyl-3-methylimidazo[1,2-a]pyridin-6-yl)-4-((E)-2-phenylvinyl)benzamide] | 1.3 nM |
| Cc1c(C2CCOC2)nc2ccc(NC(=O)c3ccc(/C(F)=C/c4ccccn4)cc3)cn12 (stereo not drawn) [Example 42] | 4.8 nM |
| Cc1c(CCCN2CCCC2)nc2ccc(NC(=O)c3ccc(/C=C/c4ccccn4)cc3)cn12 [Example 48, N-[3-methyl-2-(3-pyrrolidin-1-ylpropyl)imidazo[1,2-a]pyridin-6-yl]-4-[(E)-2-pyridin-2-ylvinyl]benzamide] | 0.47 nM |
| Cc1c(C(C)C)nc2ccc(NC(=O)c3ccc(CCc4ccccn4)cc3)cn12 [Example 49, N-(2-isopropyl-3-methylimidazo[1,2-a]pyridin-6-yl)-4-(2-pyridin-2-ylethyl)benzamide] | 6.2 nM |

Continued, values first:

| IC50 | Compound |
| --- | --- |
| 3.8 nM | CCc1nc2ccc(NC(=O)c3ccc(C(F)Cc4ccccn4)cc3)cn2c1C (stereo not drawn) [Example 58, N-(2-ethyl-3-methylimidazo[1,2-a]pyridin-6-yl)-4-(1-fluoro-2-pyridin-2-ylethyl)benzamide] |
| 3.8 nM | Cc1c(C2CCOC2)nc2ccc(NC(=O)c3ccc(SCc4ccccn4)cc3)cn12 (stereo not drawn) [Example 59, N-[3-methyl-2-(tetrahydrofuran-3-yl)imidazo[1,2-a]pyridin-6-yl]-4-(pyridin-2-ylmethylsulfanyl)benzamide] |
| 4.7 nM | Cc1c(C2CC2)nc2ccc(NC(=O)c3ccc(NC(=O)c4ccccn4)cc3)cn12 [Example 61, Pyridine-2-carboxylic acid[4-(2-cyclopropyl-3-methylimidazo[1,2-a]pyridin-6-ylcarbamoyl)phenyl]amide] |
| 4.3 nM | CCc1nc2ccc(NC(=O)c3ccc(Oc4cc(Cl)ccn4)cc3)cn2c1C [Example 67, 4-(4-Chloropyridin-2-yloxy)-N-(2-ethyl-3-methylimidazo[1,2-a]pyridin-6-yl)benzamide] |
